Test results from article PMC9684580, “The BDSF quorum sensing receptor RpfR regulates Bep exopolysaccharide synthesis in Burkholderia cenocepacia via interaction with the transcriptional regulator BerB” (NPJ Biofilms and Microbiomes, 2022).

Legend:
RpfR [1] = molecular target: T1, RpfR (Burkholderia cenocepacia, UniProt B4EKM4); test: DGC assay, products by anion-exchange FPLC (ResourceQ); type: biochemical; settings: 2 uM enzyme, 100 uM substrate, 50 mM Tris-Cl pH 7.8, 500 mM NaCl, 2 mM MgCl2, 37 °C, 180 min; product pGpG
T1 construct: gene BCAM0580; full-length rpfR in pQE-32 (BamHI/HindIII; vector with N-terminal His tag), expressed in E. coli M15[pREP4], purified

RpfR [2] = molecular target: T1, RpfR; test: PDE assay, products by anion-exchange FPLC (ResourceQ); type: biochemical; settings: 2 uM enzyme, 100 uM substrate, 50 mM Tris-Cl pH 7.8, 500 mM NaCl, 2 mM MgCl2, 37 °C, 180 min; product pGpG

T1 sequence (B4EKM4 entry or part of it): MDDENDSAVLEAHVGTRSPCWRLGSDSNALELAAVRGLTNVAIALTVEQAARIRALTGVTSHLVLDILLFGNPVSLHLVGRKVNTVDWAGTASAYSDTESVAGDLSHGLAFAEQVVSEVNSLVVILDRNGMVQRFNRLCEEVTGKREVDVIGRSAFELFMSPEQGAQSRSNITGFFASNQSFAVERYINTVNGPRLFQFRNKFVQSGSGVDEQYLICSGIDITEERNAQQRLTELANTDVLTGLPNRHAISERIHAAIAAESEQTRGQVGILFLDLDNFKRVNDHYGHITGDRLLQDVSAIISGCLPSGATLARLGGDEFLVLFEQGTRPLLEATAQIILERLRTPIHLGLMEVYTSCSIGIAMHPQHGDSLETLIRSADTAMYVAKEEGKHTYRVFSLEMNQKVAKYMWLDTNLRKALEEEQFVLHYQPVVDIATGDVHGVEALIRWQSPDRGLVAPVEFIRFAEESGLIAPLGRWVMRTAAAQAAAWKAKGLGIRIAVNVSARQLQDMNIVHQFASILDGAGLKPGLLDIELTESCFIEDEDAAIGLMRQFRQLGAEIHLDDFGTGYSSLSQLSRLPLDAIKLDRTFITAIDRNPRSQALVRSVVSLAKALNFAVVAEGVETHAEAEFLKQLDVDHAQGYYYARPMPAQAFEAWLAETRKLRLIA

| SMILES | DGC assay, products by anion-exchange FPLC (ResourceQ) (RpfR [1]) | PDE assay, products by anion-exchange FPLC (ResourceQ) (RpfR [2]) |
| --- | --- | --- |
| Nc1nc2c(ncn2[C@@H]2O[C@H](COP(=O)(O)OP(=O)(O)OP(=O)(O)O)[C@@H](O)[C@H]2O)c(=O)[nH]1 [GTP] | Wild-type RpfR metabolized GTP as well as c-di-GMP, generating pGpG from both substrates | – |
| Nc1nc2c(ncn2[C@@H]2O[C@@H]3COP(=O)(O)O[C@H]4[C@@H](O)[C@H](n5cnc6c(=O)[nH]c(N)nc65)O[C@@H]4COP(=O)(O)O[C@H]3[C@H]2O)c(=O)[nH]1 [c-di-GMP] | – | Wild-type RpfR metabolized GTP as well as c-di-GMP, generating pGpG from both substrates |
